Calls of active or inactive are those of the source. How the calls were made is not given here.

The results in this text go back to PubChem BioAssay AID1259407 (Chemical Carcinogenesis Research Information System (CCRIS), 2018).

The data set deals with CCRIS mutagenicity, Ames/micronucleus/aberration tests. Kind of data set: CCRIS mutagenicity studies.
Setting [1] is: Test System: AMES SALMONELLA TYPHIMURIUM, Strain/Indicator: TA98, Metabolic Activation: NONE, Method: STANDARD PLATE.
[2] abbreviates: Test System: AMES SALMONELLA TYPHIMURIUM, Strain/Indicator: TA98, Metabolic Activation: RAT, LIVER, S-9, AROCLOR 1254, Method: STANDARD PLATE.
Setting [3] is: Test System: AMES SALMONELLA TYPHIMURIUM, Strain/Indicator: TA100, Metabolic Activation: NONE, Method: STANDARD PLATE.
The mark [4] stands for this setting: Test System: AMES SALMONELLA TYPHIMURIUM, Strain/Indicator: TA100, Metabolic Activation: RAT, LIVER, S-9, AROCLOR 1254, Method: STANDARD PLATE.
Setting [5] is: Test System: AMES SALMONELLA TYPHIMURIUM, Strain/Indicator: TA1535, Metabolic Activation: NONE, Method: STANDARD PLATE.
Setting [6] is: Test System: AMES SALMONELLA TYPHIMURIUM, Strain/Indicator: TA1537, Metabolic Activation: NONE, Method: STANDARD PLATE.
Where [7] appears, read: Test System: AMES SALMONELLA TYPHIMURIUM, Strain/Indicator: TA1538, Metabolic Activation: NONE, Method: STANDARD PLATE.

Regarding `CC/C=C/C=O`, the mutagenic call reads like this: (Test System: AMES SALMONELLA TYPHIMURIUM, Strain/Indicator: TA100, Metabolic Activation: NONE, Method: PREINCUBATION) “inactive; negative”; (Test System: AMES SALMONELLA TYPHIMURIUM, Strain/Indicator: TA100, Metabolic Activation: NONE, Method: PREINCUBATION (THREEFOLD CELL DENSITY)) “active; positive”; (Test System: AMES SALMONELLA TYPHIMURIUM, Strain/Indicator: TA100, Metabolic Activation: RAT, LIVER, S-9, AROCLOR 1254, Method: PREINCUBATION) “active; positive”; (Test System: AMES SALMONELLA TYPHIMURIUM, Strain/Indicator: TA100, Metabolic Activation: RAT, LIVER, S-9, AROCLOR 1254, Method: PREINCUBATION (THREEFOLD CELL DENSITY)) “active; positive”; (Test System: CHINESE HAMSTER V-79, Strain/Indicator: V-79/6-THIOGUANINE, Metabolic Activation: NONE, Method: STANDARD PLATE) “active; positive”; (Test System: CHINESE HAMSTER V-79, Strain/Indicator: V-79/OUABAIN, Metabolic Activation: NONE, Method: STANDARD PLATE) “inactive; negative”.
On to `O=C(/C=C/c1ccc(O)c(O)c1)O[C@H](Cc1ccc(O)c(O)c1)C(=O)O`, for which, under “End Point: In vivo micronucleus, Species: Mouse, Strain/Sex: Swiss/Male, Route: Oral”, the mutagenic call was “inactive; negative”.
`Nc1ccc(/C=C/c2ccc(Cl)cc2)cc1`: the mutagenic call is “inactive; negative” (Test System: AMES SALMONELLA TYPHIMURIUM, Strain/Indicator: TA98(1,8-DNP6), Metabolic Activation: NONE, Method: STANDARD PLATE); “active; positive” (Test System: AMES SALMONELLA TYPHIMURIUM, Strain/Indicator: TA98(1,8-DNP6), Metabolic Activation: S-9, Method: STANDARD PLATE); “inactive; negative” under setting [1]; “active; positive” under setting [2]; “active; positive” (Test System: AMES SALMONELLA TYPHIMURIUM, Strain/Indicator: TA98, Metabolic Activation: S-9, Method: STANDARD PLATE); “inactive; negative” under setting [3]. For the same compound, the mutagenic call was “active; positive” under setting [4] and “active; positive” (Test System: AMES SALMONELLA TYPHIMURIUM, Strain/Indicator: TA100, Metabolic Activation: S-9, Method: STANDARD PLATE).
Regarding `Cn1c(N)nc2nc3cccnc3cc21`, the mutagenic call runs as follows: (Test System: AMES SALMONELLA TYPHIMURIUM, Strain/Indicator: TA98, Metabolic Activation: RAT, LIVER, S-9, AROCLOR 1254A, Method: STANDARD PLATE) “inactive; negative”; (Test System: AMES SALMONELLA TYPHIMURIUM, Strain/Indicator: YG1024, Metabolic Activation: RAT, LIVER, S-9, AROCLOR 1254A, Method: STANDARD PLATE) “active; positive”.
With `N#CC1=C(C#N)SCCS1`, the mutagenic call was “inactive; negative” under setting [1]; “inactive; negative” under setting [2]; “inactive; negative” under setting [3]; “inactive; negative” under setting [4]; “inactive; negative” under setting [5]; “inactive; negative” (Test System: AMES SALMONELLA TYPHIMURIUM, Strain/Indicator: TA1535, Metabolic Activation: RAT, LIVER, S-9, AROCLOR 1254, Method: STANDARD PLATE). The mutagenic call reads like this: under setting [6], “inactive; negative”; (Test System: AMES SALMONELLA TYPHIMURIUM, Strain/Indicator: TA1537, Metabolic Activation: RAT, LIVER, S-9, AROCLOR 1254, Method: STANDARD PLATE) “inactive; negative”; under setting [7], “inactive; negative”; (Test System: AMES SALMONELLA TYPHIMURIUM, Strain/Indicator: TA1538, Metabolic Activation: RAT, LIVER, S-9, AROCLOR 1254, Method: STANDARD PLATE) “inactive; negative”.
For `OCc1ccc2c3c(cccc13)-c1ccccc1-2`, the mutagenic call was “inactive; negative” under setting [1] and “inactive; negative” under setting [3].
Turning to `Cc1c(-c2cnccn2)ssc1=S`, the mutagenic call reads like this: under setting [1], “inactive; negative”; (Test System: AMES SALMONELLA TYPHIMURIUM, Strain/Indicator: TA98, Metabolic Activation: RAT, LIVER, S-9, AROCLOR 1254 OR PHENOBARBITOL, Method: STANDARD PLATE) “inactive; negative”; under setting [3], “inactive; negative”; (Test System: AMES SALMONELLA TYPHIMURIUM, Strain/Indicator: TA100, Metabolic Activation: RAT, LIVER, S-9, AROCLOR 1254 OR PHENOBARBITOL, Method: STANDARD PLATE) “inactive; negative”; under setting [5], “inactive; negative”; (Test System: AMES SALMONELLA TYPHIMURIUM, Strain/Indicator: TA1535, Metabolic Activation: RAT, LIVER, S-9, AROCLOR 1254 OR PHENOBARBITOL, Method: STANDARD PLATE) “inactive; negative”. For the same compound, the mutagenic call runs as follows: under setting [6], “inactive; negative”; (Test System: AMES SALMONELLA TYPHIMURIUM, Strain/Indicator: TA1537, Metabolic Activation: RAT, LIVER, S-9, AROCLOR 1254 OR PHENOBARBITOL, Method: STANDARD PLATE) “inactive; negative”; under setting [7], “inactive; negative”; (Test System: AMES SALMONELLA TYPHIMURIUM, Strain/Indicator: TA1538, Metabolic Activation: RAT, LIVER, S-9, AROCLOR 1254 OR PHENOBARBITOL, Method: STANDARD PLATE) “inactive; negative”.
